Like-named read-outs stand apart in the source and are kept apart here.
Legend:
[1] = test system: mice; test: Acute toxicity in mice (LD50), oral and subcutaneous; type: in vivo
[2] = test system: Diplococcus pneumoniae; test: Activity against Diplococcus pneumoniae (CD50); type: in vivo
[3] = test system: caecal coccidiosis; test: Activity in caecal coccidiosis; settings: in vivo
[4] = Growth promotion in poultry (general statement); type: in vivo
[5] = test system: Streptococcus pyogenes; test: Activity against Streptococcus pyogenes infection (CD50); type: in vivo
[6] = test system: a variety of microorganisms including gram-positive and gram-negative bacteria; test: Antimicrobial activity in general / biopotency; type: cell-based
Method: (§1) The activity of antibiotic X-5108 can be measured in vitro by its zone of inhibition against the gram-positive bacterium Bacillus E in the usual cup-plate agar diffusion method. Alternately the gram-positive bacterium Bacillus simplex can be employed. Both bacteria give approximately 20 mm. inhibition zones with an arbitrarily defined 1 unit/ml. solution. In this assay method, a culture of the test microorganism is grown in nutrient broth, for example, Trypticase Soy Broth, for 24 to 42 hours at 28° C. in a rotary shaker (100 ml. medium per 500 ml. Erlenmeyer flask). An inoculum concentration of 0.25 to 0.5 percent is used to inoculate the 4 ml. seed layer which is poured over a prehardened 20 ml. of base nutrient agar layer in a 100 ml. glass or disposable plastic Petri dish. The plates are refrigerated for at least two hours before cupping and filling with test solution containing the antibiotic. The plates are then incubated at 35° C. for 18 hours and zone diameters are measured to the nearest 0.5 mm. Calculations of unit per ml. potencies are then made from standard curves.
(§2) The antimicrobial spectrum was determined by employing agar diffusion cup-plate assays as described earlier.

[7] = test system: Bacillus E; test: Agar diffusion cup-plate assay, Bacillus E; type: cell-based
Method: as §1, §2

[8] = Growth stimulating effect and feed efficiency in chicks, repeated trials at varied levels (Table 13); type: in vivo, Cornish Cross Sexed Broiler Chicks; settings: for Percent gain: control = 100
Method: (§3) The growth stimulating effects of antibiotic X-5108 were determined by allowing poultry to feed, ad libitum, on the antibiotic supplemented ration. In the test, one day old Cornish Cross Sexed Broiler Chicks were used. The test utilized 10 chicks per replicate (5 males and 5 females). The replicate groups were permitted access to the ration. A planned random distribution of the replicates was made to equalize factors of heating, light and position. The birds were observed over a two week period, with group weight being determined several times during the period and individual weights being determined at the end of 14 days. Feed consumption was also recorded and improvement in feed efficiency, as compared to the control, was calculated.
(§4) The average gain for each test group is divided by the average gain of the negative control group and the quotient multiplied by 100 to yield the percent weight gain. Gain is the final body weight of the chick at the end of the 2 week test minus the beginning weight of 1 day of age. [formula]
The experiment described in Example 5, including the control, was repeated several times using the same basal ration as in Example 5. In these trials the level of antibiotic X-5108 was varied. The trial chickens were fed on supplemented feed rations containing the active ingredient in a ratio of 5, 10, 25, 50 and 100 mg. per kg. of feed. These trials were repeated to confirm the results. In the control test four replicates of ten birds were allowed to feed on a basal ration devoid of the antibiotic supplement. […] Feed consumption was also recorded and improvements in feed efficiency in comparison to the control were calculated. Table 13 records the results of this series of experiments.

[9] = test system: Bacillus simplex; test: Agar diffusion cup-plate assay, Bacillus simplex; type: cell-based; settings: arbitrarily defined 1 unit/ml. solution
Method: as §1, §2

[10] = Growth stimulating effect and feed efficiency in broiler chicks (Table 12); type: in vivo, Cornish Cross Sexed Broiler Chicks
Method: A basal ration was prepared containing the following named ingredients in the quantities hereinafter indicated: […]
Antibiotic X-5108 was added to this ration in a ratio of 50 milligrams of antibiotic per kilogram of ration.
as §3, §4

[11] = test system: Proteus vulgaris; test: Activity against gram-negative Proteus vulgaris infection; settings: in vivo

## C/C=C\C=C\[C@@H]1O[C@](O)([C@H](CC)C(=O)NC/C=C/C=C(\C)[C@@H](OC)[C@@H](C)[C@@H]2O[C@H](/C=C/C=C/C=C(\C)C(=O)c3c(O)ccn(C)c3=O)[C@H](O)[C@@H]2O)[C@H](O)[C@H](O)C1(C)C [Antibiotic X-5108]
[1]; mice, oral
  LD50: > 2,000 mg./kg.
[1]; mice, orally and subcutaneously
  toxicity in mice (in words): relatively atoxic orally and subcutaneously
[1]; mice, subcutaneous
  LD50: 1,320 mg./kg.
[1]; oral and parenteral
  oral and parenteral toxicity (in words): low oral and parenteral toxicity
[2]; in vivo
  activity against pneumococcus (in words): activity against pneumococcus
[2]; p.o.
  CD50: 807 mg/kg
[2]; sbc (subcutaneous)
  CD50: 283 mg/kg
[3]
  activity in caecal coccidiosis (in words): activity
[4]
  feed efficiency in poultry (in words): enhanced feed efficiency
  growth promotion in poultry (in words): exhibits activity as a poultry growth promotant
[4]; listed as antibiotic X-5108
  growth promotion in poultry (in words): marked growth promotion in poultry
[5]; orally
  CD50: 52 mg/kg
[5]; subcutaneously
  CD50: 44 mg/kg
[5]; systemically (oral route) and local (subcutaneous route)
  antistreptococcal activity (in words): marked antistreptococcal activity
[6]; after countercurrent distribution, Example 3
  bipotency relative to starting material: approximately twice that of the starting material
[6]; agar diffusion cup-plate
  antimicrobial spectrum (in words): broad antimicrobial spectrum
[6]; crude or more purified form
  activity against a variety of microorganisms (in words): active against a variety of microorganisms including gram-positive and gram-negative bacteria
[7]; arbitrarily defined 1 unit/ml. solution
  inhibition zone: approximately 20 mm.
[7]; solid powder after butyl acetate extraction, Example 1
  potency against Bacillus E: 120 units Bacillus E per mg.
[8]; 10 mg./kg., 18 birds
  Percent improved feed eff.: +13%
  Percent gain: 124%
[8]; 10 mg./kg., 18 birds, control 1.54
  Feed eff.: 1.41
[8]; 10 mg./kg., 18 birds, control 149
  Two-week gain: 185 g
[8]; 25 mg./kg., 18 birds
  Percent improved feed eff.: +16%
  Percent gain: 123%
[8]; 25 mg./kg., 18 birds, control 1.59
  Feed eff.: 1.37
[8]; 25 mg./kg., 18 birds, control 146
  Two-week gain: 180 g
[8]; 50 mg./kg., 18 birds
  Percent improved feed eff.: +7%
  Percent gain: 114%
[8]; 50 mg./kg., 18 birds, control 1.47
  Feed eff.: 1.38
[8]; 50 mg./kg., 18 birds, control 152
  Two-week gain: 173 g
[8]; 50 mg./kg., 24 birds
  Percent improved feed eff.: +12%
  Percent gain: 117%
[8]; 50 mg./kg., 24 birds, control 1.54
  Feed eff.: 1.37
[8]; 50 mg./kg., 24 birds, control 149
  Two-week gain: 175 g
[8]; 100 mg./kg., 18 birds
  Percent improved feed eff.: +14%
  Percent gain: 122%
[8]; 100 mg./kg., 18 birds, control 1.54
  Feed eff.: 1.33
[8]; 100 mg./kg., 18 birds, control 149
  Two-week gain: 182 g
[8]; level not given, 18 birds
  Percent improved feed eff.: +9%
  Percent gain: 123%
[8]; level not given, 18 birds, control 1.51
  Feed eff.: 1.39
[8]; level not given, 18 birds, control 149
  Two-week gain: 183 g
[9]
  inhibition zone: approximately 20 mm.
[10]; 50 mg. per kilogram of feed
  growth rate compared to control (in words): increased growth rate
[10]; 50 mg. per kilogram of feed, vs control
  improvement in feed efficiency: 10%
[10]; 50 mg./kg. feed, average for 40 chicks, basal control 154±8
  Two-week gain, g. ±2SE: 185 ± 12 g
[10]; 50 mg./kg. feed, two weeks, control 1.55
  Feed efficiency: 1.39
[10]; 50 mg./kg. feed, two weeks, control = 100
  Percent gain: 120%
[10]; 50 mg./kg. feed, vs control
  Percent improved feed efficiency: +12%
[11]
  activity against Proteus vulgaris infection (in words): active
